Laboratory results: patent publication US7691836B2, “Progesterone receptor modulators” (N.V. Organon, priority 2004, dated 2010)

Experiments:
progesterone receptor-B [1] = target: T1, progesterone receptor-B (Homo sapiens, UniProt P06401); experiment: Progesterone receptor-B transactivation, agonistic mode (CHO cells, luciferase); assay type: cell-based; conditions: for EC50: CHO cells, agonistic mode, read-out: PRBagoEC50; for Emax: CHO, read-out: PRBago Eff (%)
T1 sequence (P06401 1-933): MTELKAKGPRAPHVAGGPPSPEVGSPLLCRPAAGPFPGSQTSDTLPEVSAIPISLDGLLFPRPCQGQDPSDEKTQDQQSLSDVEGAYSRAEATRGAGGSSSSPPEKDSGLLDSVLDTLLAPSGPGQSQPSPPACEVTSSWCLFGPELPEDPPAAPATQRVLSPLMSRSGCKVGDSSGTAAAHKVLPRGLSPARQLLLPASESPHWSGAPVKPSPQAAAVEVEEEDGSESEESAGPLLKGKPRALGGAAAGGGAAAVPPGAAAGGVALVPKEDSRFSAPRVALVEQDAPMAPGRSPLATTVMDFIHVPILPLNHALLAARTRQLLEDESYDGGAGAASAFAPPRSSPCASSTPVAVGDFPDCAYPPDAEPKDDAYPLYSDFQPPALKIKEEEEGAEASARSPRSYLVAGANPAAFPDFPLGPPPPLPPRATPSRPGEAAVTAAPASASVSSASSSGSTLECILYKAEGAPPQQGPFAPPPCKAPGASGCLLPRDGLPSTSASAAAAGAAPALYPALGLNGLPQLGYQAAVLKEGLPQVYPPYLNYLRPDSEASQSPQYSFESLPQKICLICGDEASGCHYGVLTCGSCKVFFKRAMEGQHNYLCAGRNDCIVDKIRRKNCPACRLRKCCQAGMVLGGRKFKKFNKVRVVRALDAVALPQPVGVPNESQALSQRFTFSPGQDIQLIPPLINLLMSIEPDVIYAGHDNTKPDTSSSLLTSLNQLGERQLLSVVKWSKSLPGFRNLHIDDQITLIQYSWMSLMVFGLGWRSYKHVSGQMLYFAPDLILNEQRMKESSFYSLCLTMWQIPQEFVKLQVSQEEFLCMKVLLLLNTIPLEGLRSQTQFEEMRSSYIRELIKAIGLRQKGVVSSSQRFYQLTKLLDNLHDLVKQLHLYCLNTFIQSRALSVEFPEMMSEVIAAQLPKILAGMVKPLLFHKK
Excerpt: For selecting compounds of the subject invention with a mixed modulating effect on the progesterone receptor, testing in the agonistic mode must result in an intrinsic activity of between about 15% and about 85% of the maximal activity when (16α)-16-ethyl-21-hydroxy-19-norpregn-4-ene-3,20-dione is used as a reference. Moreover, this maximal agonistic activity should be reached at a concentration of 10^−6 or less, and preferably at a concentration of 10^−8 or less.
(§1) The progestagenic activity of a compound of the invention (EC50 and intrinsic agonistic activity) was determined in an in vitro bioassay of Chinese hamster ovary (CHO) cells as described by W. G. E. J. Schoonen et al. (Anal. Biochem. 261 (1998), 222-224). […] The efficacy of the antagonistic effect was expressed as the percentage of the effect produced by a standard antagonist, (6β,11β,17β)-11-[4-(dimethylamino)phenyl]-4′,5′-dihydro-6-methylspiro[estra-4,9-diene-17,2′(3′H)-furan]-3-one.
(§2) It will be recognized by those skilled in the art that, in the setting described above, the EC50 determined is more or less absolute and depends on the intrinsic property of the tested compound itself, however, the IC50 depends on the amount and agonistic EC50 of the inducer as well as on the intrinsic property of the tested compound itself. Thus, with the same amount of inducer, a relatively strong antagonist will be able to produce a measurable IC50 whereas a relatively weak antagonist may fail to produce a detectable result.

progesterone receptor-B [2] = target: T1, progesterone receptor-B; experiment: Progesterone receptor-B transactivation, antagonistic mode (inhibition of luciferase transactivation by inducer, CHO cells); assay type: cell-based; conditions: for Emax: CHO, read-out: PRBant Eff (%); for EC50: in the presence of 0.1 nM inducer (16α)-16-ethyl-21-hydroxy-19-norpregn-4-ene-3,20-dione, read-out: PRBant EC50
Method: In the antagonistic mode, testing must result in an intrinsic activity of between about 85% and about 15% of the maximal activity when (6β,11β,17β)-11-[4-(dimethylamino)phenyl]-4′,5′-dihydro-6-methylspiro[estra-4,9-diene-17,2′(3′H)-furan]-3-one is used as a reference.
as §1, §2

[3] = intrinsic agonistic activity, relative to reference (16α)-16-ethyl-21-hydroxy-19-norpregn-4-ene-3,20-dione
[4] = intrinsic antagonistic activity, percentage of effect of standard antagonist (6β,11β,17β)-11-[4-(dimethylamino)phenyl]-4′,5′-dihydro-6-methylspiro[estra-4,9-diene-17,2′(3′H)-furan]-3-one, 0.1 nM inducer

| SMILES | EC50 (progesterone receptor-B [1]) [nM] | Emax (progesterone receptor-B [1]; [3]) [%] | Emax (progesterone receptor-B [2]; [4]) [%] | EC50 (progesterone receptor-B [2]) [nM] | PRBago Eff (%) (progesterone receptor-B [1]; [3]) | PRBant Eff (%) (progesterone receptor-B [2]; [4]) |
| --- | --- | --- | --- | --- | --- | --- |
| C[C@@H]1C[C@H]2[C@@H]3CCC4=CC(=O)CCC4=C3[C@@H](c3ccc(-c4cccnc4)cc3)C[C@]2(C)[C@H]1C(=O)C1CC1 [Example 1, (11β,16α,17β)-17-cyclopropylcarbonyl-16-methyl-11-[4-(3-pyridinyl)-phenyl]estra-4,9-dien-3-one] | 0.2 | 49.2 | 46.4 | 0.267 |  |  |
| C[C@@H]1C[C@H]2[C@@H]3CCC4=CC(=O)CCC4=C3[C@@H](c3ccc(-c4cccnc4)cc3)C[C@]2(C)[C@H]1C(=O)C1CC1.Cl [Example 2, (11β,16α,17β)-17-cyclopropylcarbonyl-16-methyl-11-[4-(3-pyridinyl)-phenyl]estra-4,9-dien-3-one hydrochloride] | 0.34 |  |  | 3.3 | 44.5 | 47 |
| C[C@@H]1C[C@H]2[C@@H]3CCC4=CC(=O)CCC4=C3[C@@H](c3ccc(-c4cnc5ccccc5c4)cc3)C[C@]2(C)[C@H]1C(=O)C1CC1 [Example 7, (11β,16α,17β)-17-cyclopropylcarbonyl-16-methyl-11-[4-(3-quinolidinyl)phenyl]estra-4,9-dien-3-one] | 1 | 50 | 24 | 3.14 |  |  |
| C[C@@H]1C[C@H]2[C@@H]3CCC4=CC(=O)CCC4=C3[C@@H](c3ccc(-c4ccnnc4)cc3)C[C@]2(C)[C@H]1C(=O)C1CC1 [Example 8, (11β,16α,17β)-17-cyclopropylcarbonyl-16-methyl-11-[4-(4-pyridazinyl)phenyl]estra-4,9-dien-3-one] | 0.36 | 50.5 | 37 | 3.64 |  |  |
| C[C@@H]1C[C@H]2[C@@H]3CCC4=CC(=O)CCC4=C3[C@@H](c3ccc(-c4cnccn4)cc3)C[C@]2(C)[C@H]1C(=O)C1CC1 [Example 9, (11β,16α,17β)-17-cyclopropylcarbonyl-16-methyl-11-[4-(pyrazin-2-yl)phenyl]estra-4,9-dien-3-one] | 1.13 | 54 | 35 | 1.3 |  |  |
| C[C@@H]1C[C@H]2[C@@H]3CCC4=CC(=O)CCC4=C3[C@@H](c3ccc(-c4ccccn4)cc3)C[C@]2(C)[C@H]1C(=O)C1CC1 [Example 10, (11β,16α,17β)-17-cyclopropylcarbonyl-16-methyl-11-[4-(2-pyridinyl)phenyl]estra-4,9-dien-3-one] | 2.6 | 49.2 | 32.5 | 14.8 |  |  |
| C[C@@H]1C[C@H]2[C@@H]3CCC4=CC(=O)CCC4=C3[C@@H](c3ccc(-c4ccncc4)cc3)C[C@]2(C)[C@H]1C(=O)C1CC1 [Example 12, (11β,16α,17β)-17-cyclopropylcarbonyl-16-methyl-11-[4-(4-pyridinyl)phenyl]estra-4,9-dien-3-one] | 4 | 56 | 26.5 | 2.5 |  |  |
| C=C[C@@H]1C[C@H]2[C@@H]3CCC4=CC(=O)CCC4=C3[C@@H](c3ccc(-c4cccnc4)cc3)C[C@]2(C)[C@H]1C(=O)C1CC1 [Example 13, (11β,16α,17β)-17-cyclopropylcarbonyl-16-ethenyl-11-[4-(3-pyridinyl)phenyl]estra-4,9-dien-3-one] | 0.66 | 46.8 | 38 | 0.61 |  |  |
| C[C@]12C[C@H](c3ccc(-c4cccnc4)cc3)C3=C4CCC(=O)C=C4CC[C@H]3[C@@H]1C[C@@H](/C=C/c1ccccc1)[C@@H]2C(=O)C1CC1 [Example 14, [11β,16α(E),17β]-17-cyclopropylcarbonyl-16-(2-phenylethenyl)-11-[4-(3-pyridinyl)phenyl]estra-4,9-dien-3-one] | 5.7 | 49.8 | 34.5 | 29 |  |  |
| CC[C@@H]1C[C@H]2[C@@H]3CCC4=CC(=O)CCC4=C3[C@@H](c3ccc(-c4cccnc4)cc3)C[C@]2(C)[C@H]1C(=O)C1CC1 [Example 16, (11β,16α,17β)-17-cyclopropylcarbonyl-16-ethyl-11-[4-(3-pyridinyl)-phenyl]-estra-4,9-dien-3-one] | 0.23 | 34 | 53 | 0.596 |  |  |

The remaining lines, values ahead:

| EC50 (progesterone receptor-B [1]) [nM] | Emax (progesterone receptor-B [1]; [3]) [%] | Emax (progesterone receptor-B [2]; [4]) [%] | EC50 (progesterone receptor-B [2]) [nM] | PRBago Eff (%) (progesterone receptor-B [1]; [3]) | PRBant Eff (%) (progesterone receptor-B [2]; [4]) | SMILES |
| --- | --- | --- | --- | --- | --- | --- |
| 0.12 | 41.5 | 59 | 0.628 |  |  | COc1ccc(-c2ccc([C@H]3C[C@@]4(C)[C@@H](C[C@@H](C)[C@@H]4C(=O)C4CC4)[C@@H]4CCC5=CC(=O)CCC5=C43)cc2)cn1 [Example 3, (11β,16α,17β)-17-cyclopropylcarbonyl-11-[4-(6-methoxypyridin-3-yl)phenyl]-16-methylestra 4,9-dien-3-one] |
| 1.1 | 46.5 | 43 | 0.47 |  |  | C[C@@H]1C[C@H]2[C@@H]3CCC4=CC(=O)CCC4=C3[C@@H](c3ccc(-c4ccc(Cl)nc4)cc3)C[C@]2(C)[C@H]1C(=O)C1CC1 [Example 4, (11β,16α,17β)-11-[4-(6-chloropyridin-3-yl)phenyl]-17-cyclopropyl-carbonyl-16-methylestra-4,9-dien-3-one] |
| 0.49 | 50.5 | 50 | 8.48 |  |  | C[C@@H]1C[C@H]2[C@@H]3CCC4=CC(=O)CCC4=C3[C@@H](c3ccc(-c4ccc(F)nc4)cc3)C[C@]2(C)[C@H]1C(=O)C1CC1 [Example 5, (11β,16α,17β)-17-cyclopropylcarbonyl-11-[4-(6-fluoropyridin-3-yl)phenyl]-16-methylestra-4,9-dien-3-one] |
| 1.3 | 54 | 34 | 28 |  |  | COc1cncc(-c2ccc([C@H]3C[C@@]4(C)[C@@H](C[C@@H](C)[C@@H]4C(=O)C4CC4)[C@@H]4CCC5=CC(=O)CCC5=C43)cc2)c1 [Example 6, (11β,16α,17β)-17-cyclopropylcarbonyl-16-methyl-11-[4-(5-methoxy-pyridin-3-yl)phenyl]estra-4,9-dien-3-one] |
| 1.7 | 56 | 35 | 0.8 |  |  | Cc1ccc(-c2ccc([C@H]3C[C@@]4(C)[C@@H](C[C@@H](C)[C@@H]4C(=O)C4CC4)[C@@H]4CCC5=CC(=O)CCC5=C43)cc2)nc1 [Example 11] |
| 0.74 | 41.4 | 44.5 | 0.98 |  |  | C=C[C@@H]1C[C@H]2[C@@H]3CCC4=CC(=O)CCC4=C3[C@@H](c3ccc(-c4ccc(OC)nc4)cc3)C[C@]2(C)[C@H]1C(=O)C1CC1 [Example 15, (11β,16α,17β)-17-(cyclopropylcarbonyl)-16-ethenyl-11-[4-(6-methoxypyridin-3-yl)phenyl]estra-4,9-dien-3-one] |
| 1.3 | 42 | 51.7 | 7.89 |  |  | CC[C@@H]1C[C@H]2[C@@H]3CCC4=CC(=O)CCC4=C3[C@@H](c3ccc(-c4ccc(OC)nc4)cc3)C[C@]2(C)[C@H]1C(=O)C1CC1 [Example 17, (11β,16α,17β)-17-cyclopropylcarbonyl-16-ethyl-11-[4-(6-methoxy-pyridin-3-yl)phenyl]-estra-4,9-dien-3-one] |
